Measurements from ChEMBL document CHEMBL5357082, “Identification and Optimization of Small Molecule Pyrazolopyrimidine TLR7 Agonists for Applications in Immuno-oncology” (ACS Med Chem Lett, 2024).

Experiments:
Toll-like receptor 7 [1] = biological target: T1, Toll-like receptor 7 (Homo sapiens, UniProt Q9NYK1); assay: Agonist activity at human TLR7 in HEK-Blue hTLR7 cells harboring SEAP reporter transgene incubated for 18 hrs by quanti-blue reagent based assay; format: cell-based
T1 sequence (Q9NYK1 whole entry): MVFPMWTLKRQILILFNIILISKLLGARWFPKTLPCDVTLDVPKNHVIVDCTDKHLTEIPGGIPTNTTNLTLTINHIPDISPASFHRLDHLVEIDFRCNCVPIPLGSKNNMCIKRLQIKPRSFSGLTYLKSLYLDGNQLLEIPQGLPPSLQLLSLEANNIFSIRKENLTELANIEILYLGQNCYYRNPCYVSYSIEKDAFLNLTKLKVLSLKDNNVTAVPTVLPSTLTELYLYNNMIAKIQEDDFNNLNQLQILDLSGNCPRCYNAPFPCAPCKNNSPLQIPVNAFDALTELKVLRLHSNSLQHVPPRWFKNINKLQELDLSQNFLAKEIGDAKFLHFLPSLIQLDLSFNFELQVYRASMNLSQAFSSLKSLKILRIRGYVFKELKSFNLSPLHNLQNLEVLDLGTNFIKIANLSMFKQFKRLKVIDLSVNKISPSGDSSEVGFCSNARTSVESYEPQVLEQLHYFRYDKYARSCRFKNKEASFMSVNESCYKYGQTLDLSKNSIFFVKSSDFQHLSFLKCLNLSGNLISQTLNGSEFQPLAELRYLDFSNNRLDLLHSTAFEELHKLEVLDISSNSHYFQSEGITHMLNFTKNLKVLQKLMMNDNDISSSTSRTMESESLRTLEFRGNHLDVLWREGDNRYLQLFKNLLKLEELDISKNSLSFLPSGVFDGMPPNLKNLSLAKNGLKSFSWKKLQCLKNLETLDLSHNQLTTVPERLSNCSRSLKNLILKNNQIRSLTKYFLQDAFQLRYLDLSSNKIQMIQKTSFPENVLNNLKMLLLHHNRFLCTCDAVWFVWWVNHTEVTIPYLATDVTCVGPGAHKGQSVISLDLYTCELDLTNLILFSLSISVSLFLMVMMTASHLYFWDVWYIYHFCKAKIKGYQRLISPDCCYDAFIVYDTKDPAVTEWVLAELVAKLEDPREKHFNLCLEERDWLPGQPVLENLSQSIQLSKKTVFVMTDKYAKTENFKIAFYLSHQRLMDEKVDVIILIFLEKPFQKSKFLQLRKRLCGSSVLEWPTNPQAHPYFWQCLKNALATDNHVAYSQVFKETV

Toll-like receptor 7 [2] = biological target: T2, Toll-like receptor 7 (Mus musculus, UniProt P58681); assay: Agonist activity at mouse TLR7
T2 sequence (P58681 whole entry): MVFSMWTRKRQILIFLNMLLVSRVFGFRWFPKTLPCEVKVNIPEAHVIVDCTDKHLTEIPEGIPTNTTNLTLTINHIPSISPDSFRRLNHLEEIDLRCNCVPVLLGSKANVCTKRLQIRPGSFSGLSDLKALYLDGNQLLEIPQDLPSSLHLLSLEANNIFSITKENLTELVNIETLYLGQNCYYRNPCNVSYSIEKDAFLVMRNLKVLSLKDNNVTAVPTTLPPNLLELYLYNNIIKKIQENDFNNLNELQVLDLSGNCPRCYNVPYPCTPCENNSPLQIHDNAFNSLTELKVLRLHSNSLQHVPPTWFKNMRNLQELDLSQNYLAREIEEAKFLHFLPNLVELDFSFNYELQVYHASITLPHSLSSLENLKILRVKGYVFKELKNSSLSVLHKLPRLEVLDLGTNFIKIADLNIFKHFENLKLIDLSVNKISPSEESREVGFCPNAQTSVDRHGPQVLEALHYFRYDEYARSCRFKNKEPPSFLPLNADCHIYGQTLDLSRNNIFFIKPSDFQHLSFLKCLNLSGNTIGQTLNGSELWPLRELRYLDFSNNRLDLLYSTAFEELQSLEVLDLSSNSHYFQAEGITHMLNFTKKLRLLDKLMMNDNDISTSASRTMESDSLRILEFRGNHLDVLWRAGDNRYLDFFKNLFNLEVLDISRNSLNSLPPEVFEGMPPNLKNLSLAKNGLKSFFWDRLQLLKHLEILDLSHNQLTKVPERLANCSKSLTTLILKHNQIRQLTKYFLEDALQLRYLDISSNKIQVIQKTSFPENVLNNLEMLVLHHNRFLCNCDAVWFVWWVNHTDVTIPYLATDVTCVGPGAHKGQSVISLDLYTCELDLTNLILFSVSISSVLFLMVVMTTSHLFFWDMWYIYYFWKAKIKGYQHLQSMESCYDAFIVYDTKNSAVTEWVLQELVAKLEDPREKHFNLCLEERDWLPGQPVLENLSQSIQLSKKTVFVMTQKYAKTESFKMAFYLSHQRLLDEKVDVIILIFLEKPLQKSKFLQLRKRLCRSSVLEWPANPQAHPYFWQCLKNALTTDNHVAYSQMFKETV

[3] = Metabolic stability in human liver microsomes assessed as compound remaining at 0.5 uM incubated for 10 mins in presence of NADPH by UV absorbance based assay; format: ADME, Microsome; conditions: read-out: Stability
[4] = Metabolic stability in mouse liver microsomes assessed as compound remaining at 0.5 uM incubated for 10 mins in presence of NADPH by UV absorbance based assay; format: ADME, Microsome; conditions: read-out: Stability
[5] = biological target: Voltage-gated inwardly rectifying potassium channel KCNH2 (Homo sapiens, UniProt Q12809); assay: Inhibition of hERG; format: toxicity; conditions: for inhibition (INH): human
Sequence of Voltage-gated inwardly rectifying potassium channel KCNH2 (Q12809 whole entry): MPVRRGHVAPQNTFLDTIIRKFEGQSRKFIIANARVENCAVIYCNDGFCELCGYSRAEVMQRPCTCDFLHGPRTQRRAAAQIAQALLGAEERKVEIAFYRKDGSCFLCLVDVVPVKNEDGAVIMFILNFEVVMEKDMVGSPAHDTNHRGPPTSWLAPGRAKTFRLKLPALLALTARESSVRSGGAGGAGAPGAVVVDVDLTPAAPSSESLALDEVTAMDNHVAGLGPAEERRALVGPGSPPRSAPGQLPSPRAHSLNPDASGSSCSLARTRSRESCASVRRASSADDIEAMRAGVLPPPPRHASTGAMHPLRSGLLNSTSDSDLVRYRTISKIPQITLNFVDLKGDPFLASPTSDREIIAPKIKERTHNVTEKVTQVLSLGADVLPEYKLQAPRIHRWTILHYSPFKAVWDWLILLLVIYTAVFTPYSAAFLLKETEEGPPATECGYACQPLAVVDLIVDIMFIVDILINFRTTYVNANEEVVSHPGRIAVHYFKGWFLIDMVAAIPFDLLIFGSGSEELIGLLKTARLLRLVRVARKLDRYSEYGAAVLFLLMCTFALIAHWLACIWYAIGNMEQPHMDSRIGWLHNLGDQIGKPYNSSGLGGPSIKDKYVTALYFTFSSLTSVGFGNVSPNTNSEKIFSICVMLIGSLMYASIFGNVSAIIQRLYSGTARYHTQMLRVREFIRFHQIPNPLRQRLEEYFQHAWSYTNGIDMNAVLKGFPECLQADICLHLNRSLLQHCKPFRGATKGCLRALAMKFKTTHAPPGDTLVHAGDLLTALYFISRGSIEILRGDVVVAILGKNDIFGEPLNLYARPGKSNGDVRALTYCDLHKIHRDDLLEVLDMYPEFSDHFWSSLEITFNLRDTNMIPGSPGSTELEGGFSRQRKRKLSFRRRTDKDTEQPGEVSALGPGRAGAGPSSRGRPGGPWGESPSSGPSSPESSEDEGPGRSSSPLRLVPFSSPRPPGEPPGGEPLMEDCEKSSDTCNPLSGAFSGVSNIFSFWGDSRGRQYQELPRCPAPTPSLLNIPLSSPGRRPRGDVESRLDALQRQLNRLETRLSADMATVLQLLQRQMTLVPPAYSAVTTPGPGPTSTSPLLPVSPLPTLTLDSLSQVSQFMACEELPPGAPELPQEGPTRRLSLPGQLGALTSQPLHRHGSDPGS

[6] = Cytotoxicity against PHA-activated T-cells (unknown origin) assessed as inhibition of IL-2 induced cell proliferation measured after 72 hrs by MTS assay; format: toxicity, cell-based
Cytochrome P450 1A2 = biological target: T3, Cytochrome P450 1A2 (Homo sapiens, UniProt P05177); assay: Inhibition of CYP1A2 (unknown origin); format: ADME
T3 sequence (P05177 whole entry): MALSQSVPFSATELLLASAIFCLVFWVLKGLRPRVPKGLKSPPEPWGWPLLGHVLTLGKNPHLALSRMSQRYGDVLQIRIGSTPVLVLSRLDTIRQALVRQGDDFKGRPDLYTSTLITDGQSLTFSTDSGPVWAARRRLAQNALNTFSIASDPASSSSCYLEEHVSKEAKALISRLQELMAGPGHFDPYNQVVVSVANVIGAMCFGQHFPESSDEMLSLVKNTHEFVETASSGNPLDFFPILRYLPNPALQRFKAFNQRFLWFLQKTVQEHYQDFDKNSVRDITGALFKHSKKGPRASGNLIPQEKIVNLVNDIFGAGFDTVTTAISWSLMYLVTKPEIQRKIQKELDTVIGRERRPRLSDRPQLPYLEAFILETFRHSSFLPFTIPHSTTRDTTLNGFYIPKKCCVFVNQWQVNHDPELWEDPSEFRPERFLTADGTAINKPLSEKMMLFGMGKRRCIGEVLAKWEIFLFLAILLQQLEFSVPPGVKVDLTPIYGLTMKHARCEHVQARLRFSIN

Cytochrome P450 2C19 = Cytochrome P450 2C19 (Homo sapiens, UniProt P33261); assay: Inhibition of CYP2C19 (unknown origin); format: ADME
Sequence of Cytochrome P450 2C19 (P33261 whole entry): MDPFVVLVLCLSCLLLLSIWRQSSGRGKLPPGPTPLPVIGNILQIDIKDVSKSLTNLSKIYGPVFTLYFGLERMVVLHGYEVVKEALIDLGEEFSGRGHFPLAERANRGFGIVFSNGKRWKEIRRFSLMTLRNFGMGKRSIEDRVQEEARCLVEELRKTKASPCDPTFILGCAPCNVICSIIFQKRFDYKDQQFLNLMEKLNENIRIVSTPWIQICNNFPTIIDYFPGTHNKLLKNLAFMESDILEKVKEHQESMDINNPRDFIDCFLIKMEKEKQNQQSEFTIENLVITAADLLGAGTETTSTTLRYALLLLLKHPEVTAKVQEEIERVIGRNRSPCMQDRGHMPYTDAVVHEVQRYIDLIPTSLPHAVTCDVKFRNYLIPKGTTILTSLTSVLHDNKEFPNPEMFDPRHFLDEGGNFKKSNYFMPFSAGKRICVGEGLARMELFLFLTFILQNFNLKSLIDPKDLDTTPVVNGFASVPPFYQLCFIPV

Cytochrome P450 2C9 = Cytochrome P450 2C9 (Homo sapiens, UniProt P11712); assay: Inhibition of CYP2C9 (unknown origin); format: ADME
Sequence of Cytochrome P450 2C9 (P11712 whole entry): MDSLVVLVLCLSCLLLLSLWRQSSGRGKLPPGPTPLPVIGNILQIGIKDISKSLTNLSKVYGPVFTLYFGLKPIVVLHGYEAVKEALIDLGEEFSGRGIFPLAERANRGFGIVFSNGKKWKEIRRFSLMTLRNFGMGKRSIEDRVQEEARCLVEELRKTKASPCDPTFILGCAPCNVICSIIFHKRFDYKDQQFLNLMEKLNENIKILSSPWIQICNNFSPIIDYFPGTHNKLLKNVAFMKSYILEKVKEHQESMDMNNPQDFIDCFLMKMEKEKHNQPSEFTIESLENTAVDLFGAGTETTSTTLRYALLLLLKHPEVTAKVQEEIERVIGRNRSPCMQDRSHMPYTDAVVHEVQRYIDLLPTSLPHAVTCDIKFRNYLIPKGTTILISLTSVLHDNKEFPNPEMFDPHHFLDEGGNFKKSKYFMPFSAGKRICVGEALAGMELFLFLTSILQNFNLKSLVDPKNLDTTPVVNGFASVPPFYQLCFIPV

Cytochrome P450 2D6 = Cytochrome P450 2D6 (Homo sapiens, UniProt P10635); assay: Inhibition of CYP2D6 (unknown origin); format: ADME
Sequence of Cytochrome P450 2D6 (P10635 whole entry): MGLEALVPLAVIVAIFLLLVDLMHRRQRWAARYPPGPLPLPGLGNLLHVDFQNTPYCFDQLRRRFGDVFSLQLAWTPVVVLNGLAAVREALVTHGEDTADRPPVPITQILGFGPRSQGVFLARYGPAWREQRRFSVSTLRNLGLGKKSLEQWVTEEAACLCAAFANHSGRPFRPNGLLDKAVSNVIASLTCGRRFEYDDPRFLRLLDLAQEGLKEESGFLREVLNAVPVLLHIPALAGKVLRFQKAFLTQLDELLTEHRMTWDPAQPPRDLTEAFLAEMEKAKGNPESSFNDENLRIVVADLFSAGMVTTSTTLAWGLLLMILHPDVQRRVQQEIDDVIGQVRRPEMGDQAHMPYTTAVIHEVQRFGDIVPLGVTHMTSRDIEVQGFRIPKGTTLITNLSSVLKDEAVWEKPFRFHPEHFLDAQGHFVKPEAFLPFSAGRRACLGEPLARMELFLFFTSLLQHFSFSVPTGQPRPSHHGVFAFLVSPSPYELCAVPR

Cytochrome P450 3A4 [7] = biological target: T4, Cytochrome P450 3A4 (Homo sapiens, UniProt P08684); assay: Inhibition of CYP3A4 (unknown origin) using BFC as substrate; format: ADME
T4 sequence (P08684 whole entry): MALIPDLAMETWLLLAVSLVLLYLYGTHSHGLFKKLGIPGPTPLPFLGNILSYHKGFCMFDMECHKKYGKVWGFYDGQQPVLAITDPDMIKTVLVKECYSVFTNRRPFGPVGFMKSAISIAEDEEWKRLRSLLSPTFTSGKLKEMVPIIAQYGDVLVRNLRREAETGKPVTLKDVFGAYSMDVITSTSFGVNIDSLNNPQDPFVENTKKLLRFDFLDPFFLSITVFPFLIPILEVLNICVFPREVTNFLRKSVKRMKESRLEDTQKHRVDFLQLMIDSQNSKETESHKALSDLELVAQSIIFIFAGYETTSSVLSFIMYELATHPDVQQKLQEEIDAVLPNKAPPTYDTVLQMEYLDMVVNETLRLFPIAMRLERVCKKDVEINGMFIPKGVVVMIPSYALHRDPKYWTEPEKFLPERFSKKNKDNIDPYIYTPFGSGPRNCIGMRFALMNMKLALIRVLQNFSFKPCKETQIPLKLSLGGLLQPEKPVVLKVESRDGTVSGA

Cytochrome P450 2C8 = biological target: T5, Cytochrome P450 2C8 (Homo sapiens, UniProt P10632); assay: Inhibition of CYP2C8 (unknown origin); format: ADME
T5 sequence (P10632 whole entry): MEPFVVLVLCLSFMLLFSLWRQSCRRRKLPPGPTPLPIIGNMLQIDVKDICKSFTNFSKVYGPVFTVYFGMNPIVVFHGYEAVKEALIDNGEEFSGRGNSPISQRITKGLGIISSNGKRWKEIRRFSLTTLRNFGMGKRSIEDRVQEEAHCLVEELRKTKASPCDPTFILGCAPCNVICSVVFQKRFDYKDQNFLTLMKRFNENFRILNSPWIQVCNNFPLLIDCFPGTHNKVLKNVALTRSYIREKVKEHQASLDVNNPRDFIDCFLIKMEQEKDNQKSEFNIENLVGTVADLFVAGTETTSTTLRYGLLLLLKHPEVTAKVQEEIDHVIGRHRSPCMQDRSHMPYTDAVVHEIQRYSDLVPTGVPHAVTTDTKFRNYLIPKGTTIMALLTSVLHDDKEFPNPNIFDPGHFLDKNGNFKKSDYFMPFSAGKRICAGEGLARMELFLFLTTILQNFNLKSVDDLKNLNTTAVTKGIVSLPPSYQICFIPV

Cytochrome P450 3A4 [8] = biological target: T4, Cytochrome P450 3A4; assay: Inhibition of CYP3A4 (unknown origin) using BFC as substrate preincubated with compound followed by substrate addition at 5 mins; format: ADME
Cytochrome P450 3A4 [9] = biological target: T4, Cytochrome P450 3A4; assay: Inhibition of CYP3A4 (unknown origin) using BFC as substrate preincubated with compound followed by substrate addition at 30 mins; format: ADME

Compound | EC50 (Toll-like receptor 7 [1]) [µM] | EC50 (Toll-like receptor 7 [2]) [µM] | remaining at 10 min, 0.5 µM [3] [%] | remaining at 10 min, 0.5 µM [4] [%] | inhibition (INH) [5] | IC50 at 72 h [6] [µM] | IC50 (Cytochrome P450 1A2) [µM] | IC50 (Cytochrome P450 2C19) [µM] | IC50 (Cytochrome P450 2C9) [µM] | IC50 (Cytochrome P450 2D6) [µM] | IC50 (Cytochrome P450 3A4 [7]) [µM] | IC50 (Cytochrome P450 2C8) [µM] | IC50 (Cytochrome P450 3A4 [8]) [µM] | IC50 (Cytochrome P450 3A4 [9]) [µM] | IC50 [5] [µM]
CCCCNc1nc(N)nc2c(C3CC3)nn(Cc3ncc(C4CCNCC4)cc3OC)c12 | 0.461 | > 5 | 97 | 30 | Not Active | 20 | > 20 | > 20 | 17.6 | > 20 | 10.1 | > 20 | > 20 | 10.1 | –
CCC[C@@H](CCO)Nc1nc(N)nc2cnn(Cc3ncc(C4CCC5(CC4)CN(C(C)C)C5)cc3OC)c12 | 0.021 | 0.048 | 88 | 87 | – | > 25 | > 20 | > 20 | > 20 | > 20 | > 20 | > 20 | > 20 | > 20 | 13
CCCCNc1nc(N)nc2cnn(Cc3ncc(C4CCNCC4)cc3OC)c12 | 0.084 | 0.984 | 100 | 97 | – | > 25 | > 20 | > 20 | > 20 | > 20 | > 20 | > 20 | > 20 | > 20 | 19
CCC[C@@H](CCO)Nc1nc(N)nc2cnn(Cc3ncc(C4CC5(CNC5)C4)cc3OC)c12 | 0.37 | 1.6 | 87 | 100 | – | > 25 | > 17 | > 17 | > 17 | > 17 | > 17 | > 17 | > 17 | > 17 | > 50
CCC[C@@H](CCO)Nc1nc(N)nc2cnn(Cc3ncc(C4CC5(C4)CN(C4CCOCC4)C5)cc3OC)c12 | 0.37 | 0.148 | 77 | 66 | – | > 25 | > 20 | > 20 | > 20 | > 20 | > 20 | > 20 | > 20 | > 20 | > 50
CCC[C@@H](CCO)Nc1nc(N)nc2cnn(Cc3ncc(C4CCC5(CC4)CN(C4CCOCC4)C5)cc3OC)c12 | 0.012 | 0.029 | 57 | 50 | Not Active | 18 | > 20 | > 20 | > 20 | > 20 | > 20 | > 20 | > 20 | > 20 | –
CCCCNc1nc(N)nc2c(CC)nn(Cc3ncc(C4CCNCC4)cc3OC)c12 | 0.572 | > 5 | 74 | 47 | – | > 25 | > 20 | > 20 | > 20 | > 20 | > 20 | > 20 | > 20 | > 20 | > 50
CCCCNc1nc(N)nc2cnn(Cc3ccc(N4CCNCC4)cc3OC)c12 | 0.78 | 1.95 | 100 | 5 | Not Active | 20 | > 20 | > 20 | > 20 | > 20 | > 20 | > 20 | > 20 | > 20 | –
